Results published in patent US20250127913A1, “BIFUNCTIONAL FOLATE RECEPTOR BINDING COMPOUNDS” (LYCIA THERAPEUTICS, INC., priority 2021, published 2025).

Assays:
[1] = biological target: TNFα and streptavidin immobilized FOL2R (Homo sapiens (Human), UniProt P01375+P14207); assay: Ternary complex SPR assay; assay type: binding; conditions: 10 nM compound, max response normalized to expected response; for TC 150 nM- tagless TNF Normalized: 150 nM untagged TNF; for TC 300 nM- tagless TNF Normalized: 300 nM untagged TNF; for TC 60 nM taggless TNF normalized: 60 nM untagged TNF
Protocol: Folate receptor-TNFα ternary complex SPR assays were conducted on a Biacore 8K instrument (Cytiva) using biotinylated folate receptor beta (Acro Biosystems). Folate receptor was immobilized at -1800 RU on a streptavidin chip (Cytiva) in 10 mM HEPES pH 7.5, 150 mM NaCl, 0.05% Tween 20. Untagged TNF was preincubated with 10 nM compound for 6 hr in 10 mM HEPES pH 7.5, 150 mM NaCl, 0.05 Tween 20, 2% DMSO at 25° C. Samples were then injected over the folate receptor surface at 30 μl/min with an association time of 110 s and a dissociation time of 600 s. Surfaces were regenerated with 4 M MgCl2 at 30 μl/mm for 30 s. The maximum measured response was normalized by comparison to the maximum expected response for each compound.

folate receptor beta [2] = biological target: T1, folate receptor beta (Homo sapiens (Human), UniProt P14207); assay: Folate receptor SPR assay (biotinylated folate receptor beta on streptavidin chip); assay type: binding
Protocol: Folate receptor SPR binding assays were conducted on a Biacore 8K instrument (Cytiva) using biotinylated folate receptor beta (Acro Biosystems). Briefly, folate receptor was immobilized at -550 RU on a streptavidin chip (Cytiva) in 10 mM HEPES pH 7.5, 150 mM NaCl, 0.05% Tween 20. Multi-cycle kinetic studies were conducted with 8 compound concentrations using 2-fold dilutions in 10 mM HEPES pH 7.5, 150 mM NaCl, 0.05% Tween 20, 2% DMSO at 25° C. A flow rate or 75 μl/mmn with an association time of 120 s and a dissociation time of 600 s were used. Surfaces were regenerated with 4 M MgCl2 at 30 μl/min for 30 s. Data were fit to a 1:1 model to determine the reported binding parameters.

folate receptor beta [3] = biological target: T1, folate receptor beta; assay: Folate receptor binding assay (fluorescence polarization); conditions: 2.5 nM folate receptor beta, 2 nM FR-Cy probe, 2 hr incubation; read-out: FOLR2-FP
Protocol: Folate receptor binding was measured in black 96-well plates using a fluorescence polarization assay. A fluorescent probe consisting of a folate analog linked to Cy5 (FR-Cy) was custom synthesized.
Test compounds were resuspended in DMSO and 3-fold serial dilutions were made from 300-0.015 μM (100× final concentrations). Binding reactions were conducted in 200 μl final volume in 20 mM Hepes (pH 7.5) 250 mM NaCl 0.0150 Tween-20 1% DMSO with 2.5 nM folate receptor beta (Acro Biosystems) and 2 nM probe. Fluorescence polarization was measured using λex=620 nm, λem=688 nm on an Envision plate reader (Perkin Elmer) after 2 hr incubation time. Dose responses were conducted in duplicate and normalized to the response with DMSO (high) and 1 μM folic acid (low) on each plate. IC50 values were determined by fitting to 4-parameter curves in GraphPad Prism.

THP-1 cells = assay: Compound mediated uptake of TNFα-pHrodo in THP-1 cells (flow cytometry); assay type: cell-based; conditions: THP-1 cells, 24 hrs
Protocol: THP-1 cells, a monocytic leukemia cell line that endogenously express folate receptor beta, were used as a model system to measure example compound stimulated uptake of in-house produced TNFα conjugated to the pH sensitive fluorescent dye pHrodo green (ThermoFisher Scientific #P35369).
THP-1 cells were maintained in RPMI (Gibco #61870143) with 10% v/v FBS (VWR #89510-188) with 2 mM L-alanyl-L-glutamine dipeptide, 100 units/ml penicillin and 100 μg/ml streptomycin (Gibco #15140148). Cells were pelleted, resuspended in folate-free RPMI (Gibco #27016021) and seeded at 50,000 cells per well of a 96 well plate. Example compound was added to each well as a log 2 dilution series ranging from 20 μM to 125 nM final concentration. Cells were incubated for 24 hrs and washed/resuspended in phosphate buffered saline (pH 7.4) with 1% w/v BSA. Uptake was measured using a Novocyte Advanteon Flow Cytometer (Agilent Technologies) with the […] and FITC detection configuration.

TNFα = TNFα (Homo sapiens (Human), UniProt P01375); assay: TNFα binding assay (time-resolved FRET, biotinylated TNFα); conditions: 1 nM biotinylated TNFα, 80 nM probe, 16 hr incubation; read-out: TNF-HTRF-biotin
Protocol: TNFα binding was measured in black 96-well plates using a time-resolved FRET assay using a previously described fluorescence acceptor TNFα probe (Xiao et al J. Med. Chem. 2020). Biotinylated TNFα was purchased from Acro Biosystems. Binding reactions were conducted in 20 mM Hepes (pH 7.5) 10 mM MgCl2 0.015% Tween-20 0.05 mg/ml BSA 2% DMSO with 1 nM TNFα 0.5 nM Streptavidin-Tb and 80 nM probe. Test compounds were resuspended in DMSO and 3-fold serial dilutions were made at 100× final concentrations. Fluorescence was measured using λex=340 nm, λem=490, 520 nm on an SpectraMax M5e plate reader (Molecular Devices) after 16 hr incubation time. Dose responses were conducted in duplicate and normalized to the response with DMSO (high) and 100 nM (R)-3-(1-((3-chloro-7-fluoro-6-(2-(2-hydroxypropan-2-yl)pyrimidin-5-yl)-2-methyl-1,5-naphthyridin-4-yl)amino)ethyl)-4-fluorobenzonitrile (low) on each plate. IC50 values were determined by fitting to 4-parameter curves in GraphPad Prism.

Sequence of TNFα and streptavidin immobilized FOL2R (P14207 17-230): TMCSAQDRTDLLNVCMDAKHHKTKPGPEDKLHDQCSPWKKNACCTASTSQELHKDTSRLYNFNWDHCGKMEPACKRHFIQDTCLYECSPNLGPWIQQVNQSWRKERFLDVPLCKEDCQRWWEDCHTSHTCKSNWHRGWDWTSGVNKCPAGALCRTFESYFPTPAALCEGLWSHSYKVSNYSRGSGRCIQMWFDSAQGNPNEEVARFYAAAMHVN
Sequence of TNFα and streptavidin immobilized FOL2R (P01375 77-233): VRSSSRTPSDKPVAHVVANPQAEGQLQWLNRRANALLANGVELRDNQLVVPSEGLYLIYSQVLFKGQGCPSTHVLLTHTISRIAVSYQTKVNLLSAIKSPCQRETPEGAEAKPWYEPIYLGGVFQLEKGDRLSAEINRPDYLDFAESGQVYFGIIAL
Sequence of TNFα (P01375 77-233): as above
T1 sequence (P14207 17-255): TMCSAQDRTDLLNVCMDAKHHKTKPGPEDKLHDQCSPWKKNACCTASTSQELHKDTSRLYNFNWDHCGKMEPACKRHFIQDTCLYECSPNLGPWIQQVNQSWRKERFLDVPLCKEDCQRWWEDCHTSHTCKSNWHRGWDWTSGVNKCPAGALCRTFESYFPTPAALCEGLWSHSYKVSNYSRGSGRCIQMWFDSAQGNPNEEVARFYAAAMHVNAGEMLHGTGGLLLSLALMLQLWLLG

| SMILES | TC 300 nM- tagless TNF Normalized [1] [%] | IC50 (folate receptor beta [3]) [nM] | IC50 (TNFα) [nM] | also measured |
| --- | --- | --- | --- | --- |
| Cc1nc2cc(F)c(-c3cnc(N4CCN(C(=O)COCCn5cc(COCCOCCOCCN6CCN(C(=O)[C@H](CCC(=O)O)NC(=O)c7ccc(NCc8cnc9nc(N)nc(O)c9n8)cc7)CC6)nn5)CC4)nc3)nc2c(N[C@H](C)c2cc(C#N)ccc2F)c1Cl [Compound I-97] | 21.1 | 17 |  | TC 150 nM- tagless TNF Normalized [1]: 18.4%; Rmax (folate receptor beta [2]; biotinylated folate receptor beta on streptavidin chip): 17.1 RU; kd (folate receptor beta [2]; multi-cycle kinetics, 25° C., 1:1 model): 0.000798 s⁻¹; Kd (folate receptor beta [2]; multi-cycle kinetics, 25° C., 1:1 model, read-out: FOLR2Biotin - SPR Kd): 0.0914 nM; kon (folate receptor beta [2]; pH 7.5, multi-cycle kinetics, 25° C., 1:1 model, read-out: ka): 8.74e+06 M⁻¹ s⁻¹ |
| Cc1nc2cc(F)c(-c3cnc(OCCCCCn4cc(COCCOCCOCCOCCNC(=O)[C@H](CCC(=O)O)NC(=O)c5ccc(NCc6cnc7nc(N)nc(O)c7n6)cc5)nn4)nc3)nc2c(N[C@H](C)c2cc(C#N)ccc2F)c1Cl [Compound 1-21] |  |  |  | uptake of labelled TNFα (median fluorescence intensity of pHrodo dye) (THP-1 cells): stimulate uptake of TNFα |
| Cc1nc2cc(F)c(-c3cnc(N4CCN(C(=O)COCCn5cc(COCCOCCOCCOCCNC(=O)CC[C@H](NC(=O)c6ccc(NCc7cnc8nc(N)nc(O)c8n7)cc6)C(=O)O)nn5)CC4)nc3)nc2c(N[C@H](C)c2cc(C#N)ccc2F)c1Cl [Compound I-45, (S)-18-(4-(((2-amino-4-hydroxypteridin-6-yl)methyl)amino)benzamido)-1-(1-(2-(2-(4-(5-(7-chloro-8-(((R)-1-(5-cyano-2-fluorophenyl)ethyl)amino)-3-fluoro-6-methyl-1,5-naphthyridin-2-yl)pyrimidin-2-yl)piperazin-1-yl)-2-oxoethoxy)ethyl)-1H-1,2,3-triazol-4-yl)-15-oxo-2,5,8,11-tetraoxa-14-azanonadecan-19-oic acid] | 17.6 | 4.2 | 25 | TC 150 nM- tagless TNF Normalized [1]: 16.3% |
| Cc1nc2cc(F)c(-c3cnc(N4CC5(CN(C(=O)COCCOCCOCCOCCOCCOCCn6cc(CC[C@H](NC(=O)c7ccc(NCc8cnc9nc(N)nc(O)c9n8)cc7)C(=O)O)nn6)C5)C4)nc3)nc2c(N[C@H](C)c2cc(C#N)ccc2F)c1Cl [Compound I-81, (S)-2-(4-(((2-amino-4-hydroxypteridin-6-yl)methyl)amino)benzamido)-4-(1-(20-(6-(5-(7-chloro-8-(((R)-1-(5-cyano-2-fluorophenyl)ethyl)amino)-3-fluoro-6-methyl-1,5-naphthyridin-2-yl)pyrimidin-2-yl)-2,6-diazaspiro[3.3]heptan-2-yl)-20-oxo-3,6,9,12,15,18-hexaoxaicosyl)-1H-1,2,3-triazol-4-yl)butanoic acid] | 12.1 | 7.1 | 39 | TC 60 nM taggless TNF normalized [1]: 4% |
| CN(Cc1cnc2nc(N)[nH]c(=O)c2n1)c1ccc(C(=O)N[C@@H](CCc2cn(CCOCCOCCOCCOCCOCCOCC(=O)N3CCN(c4ncc(-c5ccc6nc(COc7cccc(N8CCCC8=O)c7)n(Cc7ccccc7OC(F)F)c6c5)cn4)CC3)nn2)C(=O)O)cc1 [Compound I-83, (S)-2-(4-(((2-amino-4-oxo-3,4-dihydropteridin-6-yl)methyl)(methyl)amino)benzamido)-4-(1-(20-(4-(5-(1-(2-(difluoromethoxy)benzyl)-2-((3-(2-oxopyrrolidin-1-yl)phenoxy)methyl)-1H-benzo[d]imidazol-6-yl)pyrimidin-2-yl)piperazin-1-yl)-20-oxo-3,6,9,12,15,18-hexaoxaicosyl)-1H-1,2,3-triazol-4-yl)butanoic acid] | 17.5 | 5.3 | 28 | TC 60 nM taggless TNF normalized [1]: 14.3% |
| C[C@@H]1CN(c2ncc(-c3ccc4c(c3)N(Cc3ccccc3OC(F)F)C(C)(C)C4=O)cn2)CCN1C(=O)COCCOCCOCCOCCOCCOCCn1cc(CC[C@H](NC(=O)c2ccc(NCc3cnc4nc(N)nc(O)c4n3)cc2)C(=O)O)nn1 [Compound I-88, (S)-2-(4-(((2-amino-4-hydroxypteridin-6-yl)methyl)amino)benzamido)-4-(1-(20-((R)-4-(5-(1-(2-(difluoromethoxy)benzyl)-2,2-dimethyl-3-oxoindolin-6-yl)pyrimidin-2-yl)-2-methylpiperazin-1-yl)-20-oxo-3,6,9,12,15,18-hexaoxaicosyl)-1H-1,2,3-triazol-4-yl)butanoic acid] |  | 6.9 | 60 |  |
| Cc1nc2cc(F)c(-c3cnc(N4CCN(C(=O)COCCOCCOCCOCCN5CCN(C(=O)CC[C@H](NC(=O)c6ccc(N(C)Cc7cnc8nc(N)[nH]c(=O)c8n7)cc6)C(=O)O)CC5)CC4)nc3)nc2c(N[C@H](C)c2cc(C#N)ccc2F)c1Cl [Compound I-78, (S)-2-(4-(((2-amino-4-oxo-3,4-dihydropteridin-6-yl)methyl)(methyl)amino)benzamido)-5-(4-(14-(4-(5-(7-chloro-8-(((R)-1-(5-cyano-2-fluorophenyl)ethyl)amino)-3-fluoro-6-methyl-1,5-naphthyridin-2-yl)pyrimidin-2-yl)piperazin-1-yl)-14-oxo-3,6,9,12-tetraoxatetradecyl)piperazin-1-yl)-5-oxopentanoic acid] |  | 9.2 | 13 |  |
| Cc1nc2cc(F)c(-c3cnc(N4CCN(C(=O)COCCOCCOCCOCCOCCOCCn5cc(CC[C@H](NC(=O)c6ccc(SCc7ccc8nc(N)nc(O)c8c7)cc6)C(=O)O)nn5)CC4)nc3)nc2c(N[C@H](C)c2cc(C#N)ccc2F)c1Cl [Compound I-79, (S)-2-(4-(((2-amino-4-hydroxyquinazolin-6-yl)methyl)thio)benzamido)-4-(1-(20-(4-(5-(7-chloro-8-(((R)-1-(5-cyano-2-fluorophenyl)ethyl)amino)-3-fluoro-6-methyl-1,5-naphthyridin-2-yl)pyrimidin-2-yl)piperazin-1-yl)-20-oxo-3,6,9,12,15,18-hexaoxaicosyl)-1H-1,2,3-triazol-4-yl)butanoic acid] |  | 3.2 | 17 |  |
